Counter-ions that a name gives are not always drawn.

The first assay concerns the target T1, Rat brain protein farnesyltransferase (Rattus norvegicus, UniProt Q02293+Q04631).
T1 construct: The enzyme is purified according to Reiss, Y., et al., Cell, 62: 81-88 (1990), utilizing steps one through three; from tissue; host or cells: rat brain
Kind of assay: In vitro inhibition of protein farnesyltransferase, Amersham scintillation proximity assay with biotin-K Ras B fragment. Type of assay: biochemical. As to conditions: Inhibition of farnesyltransferase; compound at 1 × 10^−6 M (Table 2). In general terms: Scintillation proximity formats need no separation of bound from free tracer.
A word on the % inhibition: it is the share of the control response that was lost under treatment. Higher therefore signals a strong effect. With `CSCC[C@H](NC(=O)c1ccc(CN(C(=O)c2ccccc2)c2cccnc2)cc1-c1ccccc1C)C(=O)O` [Example 569, N-[4-N-Benzoyl-N-pyrid-3-ylaminomethyl-2-(2-methylphenyl)benzoyl]methionine], the “% inhibition at 1 × 10^−6 M” value is listed as 91%.

Staying with this assay, now noted: Inhibition of farnesyltransferase; compound at 1 × 10^−6 M (Table 2); read-out: % inhibition at 1 × 10^−6 M.
One may read the inhibition as the drop in the measured response relative to a control, in per cent. Consider `Cc1ccccc1-c1cc(/C=C/c2cnc3ccccc3c2)ccc1C(=O)N[C@@H](CC[S+](C)[O-])C(=O)O` (stereo partly drawn) [Example 488], for which the inhibition at 1 µM is 41%.

For the compound `CSCC[C@H](NC(=O)c1ccc(CN(Cc2ccccc2)c2cccnc2)cc1-c1ccccc1C)C(=O)OCOC(C)=O` [Example 499, Acetoxymethyl N-[4-N-Benzyl-N-pyridin-3-ylaminomethyl-2-(2-methylphenyl)benzoyl]methionine], the inhibition at 1 µM is 98%.

Regarding `CSCC[C@H](NC(=O)c1ccc(CN(Cc2ccccc2)c2cccnc2)cc1-c1ccccc1C)C(=O)OCOC(=O)C(C)(C)C` [Example 500, Pivaloyloxymethyl N-[4-N-Benzyl-N-pyridin-3-ylaminomethyl-2-(2-methylphenyl)benzoyl]methionine], the inhibition at 1 µM stood at 98%.

Regarding `CCN(CC)C(=O)COC(=O)[C@H](CCSC)NC(=O)c1ccc(CN(Cc2ccccc2)c2cccnc2)cc1-c1ccccc1C` [Example 501, N,N-Diethylaminocarbonylmethyl N-[4-N-benzyl-N-pyridin-3-ylaminomethyl-2-(2-methylphenyl)benzoyl]methionine], the inhibition at 1 µM worked out at 84%.

Turning to `CSCC[C@H](NC(=O)c1ccc(/C=C/c2cccnc2)cc1-c1ccccc1C)C(N)=O` [Example 796, N-[4-(2-Pyrid-3-ylethen-1-yl)-2-(2-methylphenyl)benzoyl]methioninamide], the inhibition at 1 µM is 35%.

Consider `CSCC[C@H](NC(=O)c1ccc(/C=C/c2cccnc2)cc1-c1ccccc1C)C(=O)NC(=O)c1ccccc1` [Example 797, Benzoyl N-[4-(2-Pyrid-3-ylethen-1-yl)-2-(2-methylphenyl)benzoyl]methioninamide], for which the inhibition at 1 µM came to 35%.

For `CCc1cc(C(=O)N[C@@H](CCSC)C(=O)O)c(-c2ccccc2C)cc1COc1cccnc1` [Example 918, N-[5-Ethyl-4-(pyrid-3-yloxymethyl)-2-(2-methylphenyl)benzoyl]methionine], the inhibition at 1 µM was 97%.

As to `CSCCCNC(=O)c1ccc(CN(Cc2ccccc2)c2cccnc2)cc1-c1ccccc1C` [Example 926, 3-Methylthiopropyl N-4-(N-Pyrid-3-yl-N-benzylaminomethyl)-2-(2-methylphenyl)benzamide], the inhibition at 1 µM stood at 69%.

The same assay, now with this note: Inhibition of farnesyltransferase; compound at 1 × 10^−7 M (Table 3); read-out: % inhibition at 1 × 10^−7 M.
`CSCC[C@H](NC(=O)c1ccc(/C=C/c2cnccc2C(O)C2CCCCC2)cc1-c1ccccc1C)C(=O)O` (stereo partly drawn) [Example 486, N-[4-(2-(4-(1-Cyclohexyl)hydroxmethyl)pyrid-3-ylethen-1-yl)-2-(2-methylphenyl)benzoyl]methionine Lithium Salt]: the inhibition at 0.1 µM stood at 97%.

With `CSCC[C@H](NC(=O)c1ccc(CN(c2cccnc2)S(=O)(=O)c2ccccc2)cc1-c1ccccc1C)C(=O)O` [Example 570, N-[4-N-Phenylsulfonyl-N-pyrid-3-ylaminomethyl-2-(2-methylphenyl)benzoyl]methionine], the inhibition at 0.1 µM stood at 92%.

Take `CSCC[C@@H](C(=O)O)N(C)C(=O)c1ccc(CN(Cc2ccccc2)c2cccnc2)cc1-c1ccccc1C` [Example 602, N-[4-(N-Benzyl-N-pyrid-3-ylaminomethyl)-2-(2-methylphenyl)benzoyl]-N-methylmethionine]: the inhibition at 0.1 µM came to 97%.

On to `CSCCC(OC(=O)c1ccc(/C=C/c2cccnc2)cc1-c1ccccc1C)C(=O)O` (stereo not drawn) [Example 814, 2-[4-(2-Pyrid-3-ylethen-1-yl)-2-(2-methylphenyl)benzoyl]oxy-4-methylthiobutanoic Acid], for which the inhibition at 0.1 µM is 81%.

Turning to `CSCC[C@H](NC(=O)c1ccc(CCc2cccnc2)cc1-c1ccccc1C)/C(=N/O)NO` [Example 815, N-[4-(2-Pyrid-3-yleth-1-yl)-2-(2-methylphenyl)benzoyl]methionine N,N-Dihydroxyamidine], the inhibition at 0.1 µM stood at 71%.

As for `CSCC[C@H](NC(=O)c1ccc(C#Cc2cccnc2)cc1-c1ccccc1C)C(=O)O` [Example 865, N-[4-(2-Pyrid-3-ylethyn-1-yl)-2-(2-methylphenyl)benzoyl]methionine], the inhibition at 0.1 µM was found to be 95%.

With `CCCCCc1cc(C(=O)N[C@@H](CCSC)C(=O)O)c(-c2ccccc2C)cc1COc1cccnc1` [Example 919, N-[5-Pentyl-4-(pyrid-3-yloxymethyl)-2-(2-methylphenyl)benzoyl]methionine], the inhibition at 0.1 µM came to 91%.

`CSCC[C@H](NC(=O)c1cc(CC2CCCCC2)c(COc2cccnc2)cc1-c1ccccc1C)C(=O)O` [Example 921, N-[5-Cyclohexylmethyl-4-(pyrid-3-yloxymethyl)-2-(2-methylphenyl)benzoyl]methionine]: the inhibition at 0.1 µM came to 82%.

Staying with this assay, now noted: Inhibition of farnesyltransferase; compound at 1 × 10^−8 M (Table 4); read-out: % inhibition at 1 × 10^−8 M.
In the case of `CSCC[C@H](NC(=O)c1ccc(COc2cccnc2)cc1-c1ccccc1)C(=O)NS(=O)(=O)N1CCSCC1` [Example 603, Thiomorpholinesulfonyl N-2-[4-(Pyrid-3-yloxymethyl)-2-phenylbenzoyl]amino-4-methylthiobutanamide], the inhibition at 0.01 µM is 94%.

As to `CC[C@H](NC(=O)c1ccc(COc2cccnc2)cc1-c1ccccc1)C(=O)O` [Example 760, (2S)-2-N-[4-(3-Pyridyloxymethyl)-2-phenylbenzoyl]aminobutanoic Acid], the inhibition at 0.01 µM is 95%.

As for `CSCC[C@H](NC(=O)c1ccc(COc2cccnc2)cc1-c1ccc(F)cc1Cl)C(=O)O` [Example 871, N-[4-(Pyrid-3-yloxymethyl)-2-(2-chloro-4-fluorophenyl)benzoyl]methionine], the inhibition at 0.01 µM was determined as 94%.

Take `CSCC[C@H](NC(=O)c1ccc(CN(Cc2ccccc2)c2cccnc2)cc1-c1ccc(F)cc1Cl)C(=O)O` [Example 873, N-(4-(N-Benzyl-N-pyrid-3-ylaminomethyl)-2-(2-chloro-4-fluorophynel)beonzoyl)methionine]: the inhibition at 0.01 µM worked out at 97%.

In the case of `CSCC[C@H](NC(=O)c1cc(Cc2ccccc2)c(CN(Cc2ccccc2)c2cccnc2)cc1-c1ccccc1C)C(=O)O` [Example 920, N-[5-Benzyl-4-(N-pyrid-3-yl-N-benzylaminomethyl)-2-(2-metbylphenyl)benzoyl]methionine], the inhibition at 0.01 µM stood at 96%.

With `CSCC[C@H](NC(=O)c1cc(CCc2ccccc2)c(COc2cccnc2)cc1-c1ccccc1C)C(=O)O` [Example 922, N-[5-(2-Phenylethyl)-4-(pyrid-3-yloxymethyl)-2-(2-methylphenyl)benzoyl]methionine], the inhibition at 0.01 µM turned out to be 96%.

On to `CSCC[C@H](NC(=O)c1ccc(CNCc2c[nH]cn2)cc1-c1ccccc1C)C(=O)O` [Example 954, N-[4-(Imidazol-4-ylmethylaminomethyl)-2-(2-methylphenyl)benzoyl]methionine], for which the inhibition at 0.01 µM was more than 50%.

For the compound `CSCC[C@H](NC(=O)c1ccc(OCCn2ccnc2)cc1-c1ccccc1)C(=O)O` [Example 958, N-[4-(2-Imidazol-1-ylethoxy)-2-phenylbenzoyl]methionine], the inhibition at 0.01 µM was more than 50%.

Still in this assay, the particulars now being: read-out: % inhibition at 0.01 μM.
For `CSCC[C@H](NC(=O)c1ccc(C=Cc2cnccc2O)cc1-c1ccccc1C)C(=O)O` [Example 1039, N-[4-(2-(4-Hydroxypyridin-3-yl)ethenyl)-2-(2-methylphenyl)benzoyl]methionine Lithium Salt], the inhibition at 0.01 µM stood at 89%.

On to `CSCC[C@H](NC(=O)c1ccc(/C=C/c2cnccc2Cl)cc1-c1ccccc1C)C(=O)O` [Example 1040, N-[4-(2-(4-Chloropyridin-3-yl)ethenyl)-2-(2-methylphenyl)benzoyl]methionine Lithium Salt], for which the inhibition at 0.01 µM was 90%.

Staying with this assay, now noted: read-out: % inhibition at 1 × 10^−6 M.
Turning to `CNCCc1cnc[nH]1` [Example 722], the inhibition at 1 µM stood at 96%.

Still in this assay, the particulars now being: read-out: % inhibition at 1 × 10^−7 M.
Turning to `CSCC[C@H](NC(=O)c1ccc(CCc2cncc3ccccc23)cc1-c1ccccc1C)C(=O)O` [Example 492, N-[4-(2-Isoquinolin-4-ylethyl)-2-(2-methylphenyl)benzoyl]methionine Lithium Salt], the inhibition at 0.1 µM came out at 95%.

In the case of `CSCC[C@H](NC(=O)c1ccc(CCc2cncc(Cc3ccccc3)c2)cc1-c1ccccc1C)C(=O)O` [Example 799, Lithium Salt], the inhibition at 0.1 µM was found to be 96%.

For the compound `CSCC[C@H](NC(=O)c1ccc(C=Cc2ccc(Oc3ccccc3)nc2)cc1-c1ccccc1C)C(=O)O` [Example 800, N-[4-(2-(6-Phenyloxypyrid-3-yl)ethen-1-yl)-2-(2-methylphenyl)benzoyl]methionine Lithium Salt], the inhibition at 0.1 µM was 74%.

For `CSCC[C@H](NC(=O)c1ccc(CCc2ccc(Oc3ccccc3)nc2)cc1-c1ccccc1C)C(=O)O` [Example 801, N-[4-(2-(6-Phenyloxypyrid-3-yl)ethyl)-2-(2-methylphenyl)benzoy]methionine Lithium Salt], the inhibition at 0.1 µM was determined as 87%.

On to `CSCC[C@H](NC(=O)c1ccc(/C=C/c2ccc(Oc3ccccc3Cl)nc2)cc1-c1ccccc1C)C(=O)O` [Example 802, Lithium Salt], for which the inhibition at 0.1 µM came out at 88%.

`CSCC[C@H](NC(=O)c1ccc(COc2cccnc2)cc1-c1c(C)noc1C)C(=O)O` [Example 823]: the inhibition at 0.1 µM was found to be 75%.

The same assay, now with this note: read-out: % inhibition at 1 × 10^−8 M.
For the compound `CSCC[C@H](NC(=O)c1ccc(/C=C/c2cnccc2C(O)C23CC4CC(CC(C4)C2)C3)cc1-c1ccccc1C)C(=O)O` (stereo partly drawn) [Example 803, Lithium Salt], the inhibition at 0.01 µM is 95%.

Regarding `CSCC[C@H](NC(=O)c1ccc(/C=C/c2cnccc2C(O)(c2ccccc2)c2ccccc2)cc1-c1ccccc1C)C(=O)O` [Example 805, Lithium Salt], the inhibition at 0.01 µM worked out at 96%.

The values above are taken from patent publication US6693123B2 (University of Pittsburgh, priority 1995, dated 2004).
